These results are taken from ChEMBL document CHEMBL1782037, “Discovery and characterization of a nonphosphorylated cyclic peptide inhibitor of the peptidylprolyl isomerase, Pin1” (J Med Chem, 2011).

Activity calls are given as the source filed them. No cut-off for these calls is given here. Positions of bridges follow the written chain, without caps; N, C: chain ends. Residues, ends and D or L forms follow the SMILES beside them.

The target of data set [1] is T1, Peptidyl-prolyl cis-trans isomerase NIMA-interacting 1 (Homo sapiens, UniProt Q13526). Put plainly: Binding affinity to human Pin1 PPIase domain at 480 uM by NMR chemical shift perturbation method.
T1 sequence (Q13526 whole entry, the tested form may be a part): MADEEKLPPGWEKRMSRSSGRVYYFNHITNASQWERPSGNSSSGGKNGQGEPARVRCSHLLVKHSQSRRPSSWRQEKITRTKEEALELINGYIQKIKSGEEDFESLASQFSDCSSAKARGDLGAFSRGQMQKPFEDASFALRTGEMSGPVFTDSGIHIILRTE
In data set [2] the target is T1, Peptidyl-prolyl cis-trans isomerase NIMA-interacting 1. Put plainly: Binding affinity to human Pin1 WW domain at 480 uM by NMR chemical shift perturbation method.
Data set [3] has the same target. Description: Binding affinity to human Pin1 active site at 200 uM by NMR study.
The target is the same in data set [4]. Description: Binding affinity to human Pin1 PPIase domain at 200 uM by agarose gel electrophoresis.
Data set [5] shares this target. Description: Binding affinity to human Pin1 WW domain at 200 uM by agarose gel electrophoresis.
Data set [6] shares this target. Description: Inhibition of human GST-tagged-Pin1 PPIase activity using Suc-AEPF-pNA as substrate by Michaelis-Menten equation.
Data set [7] has the same target. Description: Competitive inhibition of human GST-tagged-Pin1 PPIase activity using WFYpSPR-pNA as substrate by Michaelis-Menten equation.
A short description of data set [8]: Solubility of the compound. It counts as physicochemical.

As for `CC[C@H](C)[C@@H]1NC(=O)[C@H](CCC(=O)O)NC(=O)[C@H](C(C)C)NC(=O)[C@H](CCC(=O)O)NC(=O)[C@@H]2CCCN2C(=O)[C@H](Cc2ccc(O)cc2)NC(=O)[C@H](CCCNC(=N)N)NC(=O)[C@@H](N)CSSC[C@@H](C(=O)O)NC1=O` (H-CRYPEVEIC-OH; disulfide 1-9), the result in data set [1], in data set [3] and in data set [4] was Active. Moreover, the outcome in data set [2] and in data set [5] was inactive.

Broadly, the Ki is the dissociation constant of the complex between target and ligand, obtained from inhibition or displacement. A higher Ki goes with lower affinity. Turning to `CC[C@H](C)[C@@H]1NC(=O)[C@H](CCC(=O)O)NC(=O)[C@H](C(C)C)NC(=O)[C@H](CCC(=O)O)NC(=O)[C@@H]2CCCN2C(=O)[C@H](Cc2ccc(O)cc2)NC(=O)[C@H](CCCN=C(N)N)NC(=O)[C@@H](N)CSSC[C@@H](C(=O)O)NC1=O` [CYCLIC CRYPEVEIC] (H-CRYPEVEIC-OH; disulfide 1-9), the results for the inhibition constant Ki in data set [6] and in data set [7] were 520 nM and 200 nM, respectively. Further, the solubility entry in data set [8] was “soluble”.

Turning to `CC[C@H](C)[C@H](NC(=O)[C@H](CCC(=O)O)NC(=O)[C@@H](NC(=O)[C@H](CCC(=O)O)NC(=O)[C@@H]1CCCN1C(=O)[C@H](Cc1ccc(O)cc1)NC(=O)[C@H](CCCN=C(N)N)NC(=O)[C@@H](N)CS)C(C)C)C(=O)N[C@@H](CS)C(=O)O` [CRYPEVEIC] (H-CRYPEVEIC-OH), the inhibition constant (Ki) in data set [6] was determined as 44000 nM.
